Measured values as given in US20140128385A1 (NOVARTIS AG, priority 2011, published 2014).
Counter-ions that a name gives are not always drawn.

Each compound was assayed against T1, BACE-2 (Homo sapiens, UniProt Q9Y5Z0) (assay: assay for inhibition of BACE-2).
T1 construct: Recombinant BACE-2 (extracellular domain, expressed in baculovirus and purified using standard methods); made in house
T1 sequence (Q9Y5Z0 63-473 limits assumed): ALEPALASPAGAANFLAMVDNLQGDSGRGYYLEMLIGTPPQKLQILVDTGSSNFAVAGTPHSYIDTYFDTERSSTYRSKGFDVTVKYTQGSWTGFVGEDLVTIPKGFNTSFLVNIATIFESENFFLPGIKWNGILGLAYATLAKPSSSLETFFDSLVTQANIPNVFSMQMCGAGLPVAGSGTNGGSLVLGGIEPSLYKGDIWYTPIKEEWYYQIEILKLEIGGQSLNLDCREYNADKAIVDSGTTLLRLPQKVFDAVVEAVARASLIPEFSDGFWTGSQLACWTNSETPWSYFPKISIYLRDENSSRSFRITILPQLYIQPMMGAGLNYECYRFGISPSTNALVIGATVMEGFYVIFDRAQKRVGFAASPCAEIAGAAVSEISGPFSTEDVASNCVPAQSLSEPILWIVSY
Format: biochemical
For `Cc1c(C(=O)Nc2ccc(F)c([C@]3(C(F)F)COCC(N)=N3)c2)nnn1C` [Example 173, 1,5-Dimethyl-1H-[1,2,3]triazole-4-carboxylic acid [3-((R)-5-amino-3-difluoromethyl-3,6-dihydro-2H-[1,4]oxazin-3-yl)-4-fluoro-phenyl]-amide hydrochloride], the IC50 was > 10000 nM. With `COc1cnc(C(=O)Nc2ccc(F)c([C@]3(C(F)F)COCC(N)=N3)c2)c(C)n1` [Example 174, 5-Methoxy-3-methyl-pyrazine-2-carboxylic acid [3-((R)-5-amino-3-difluoromethyl-3,6-dihydro-2H-[1,4]oxazin-3-yl)-4-fluoro-phenyl]-amide hydrochloride] the IC50 was 276 nM. `COc1cnc(C(=O)Nc2ccc(F)c([C@]3(C(F)F)COCC(N)=N3)c2)c(N)n1` [Example 175, 3-Amino-5-methoxy-pyrazine-2-carboxylic acid [3-((R)-5-amino-3-difluoromethyl-3,6-dihydro-2H-[1,4]oxazin-3-yl)-4-fluoro-phenyl]-amide hydrochloride] showed an IC50 of 111 nM. In the case of `Cc1cc(OC(F)F)cnc1C(=O)Nc1ccc(F)c([C@]2(C(F)F)COCC(N)=N2)c1` [Example 176, 5-Difluoromethoxy-3-methyl-pyridine-2-carboxylic acid [3-((R)-5-amino-3-difluoromethyl-3,6-dihydro-2H-[1,4]oxazin-3-yl)-4-fluoro-phenyl]-amide hydrochloride], the IC50 is reported as 183 nM. `Cc1cc(OCF)cnc1C(=O)Nc1ccc(F)c([C@]2(C(F)F)COCC(N)=N2)c1` [Example 177, 5-Fluoromethoxy-3-methyl-pyridine-2-carboxylic acid [3-((R)-5-amino-3-difluoromethyl-3,6-dihydro-2H-[1,4]oxazin-3-yl)-4-fluoro-phenyl]-amide hydrochloride] showed an IC50 of 37 nM. For `COCCOc1cnc(C(=O)Nc2ccc(F)c([C@]3(C(F)F)COCC(N)=N3)c2)c(C)n1` [Example 178, 5-(2-Methoxy-ethoxy)-3-methyl-pyrazine-2-carboxylic acid [3-((R)-5-amino-3-difluoromethyl-3,6-dihydro-2H-[1,4]oxazin-3-yl)-4-fluoro-phenyl]-amide hydrochloride], the IC50 was 2960 nM. In the case of `COc1cnc(C(=O)Nc2ccc(F)c([C@]3(C(F)F)COCC(N)=N3)c2)c(OC)c1` [Example 179, 3,5-Dimethoxy-pyridine-2-carboxylic acid [3-((R)-5-amino-3-difluoromethyl-3,6-dihydro-2H-[1,4]oxazin-3-yl)-4-fluoro-phenyl]-amide hydrochloride], the IC50 is reported as 270 nM. In the case of `COCCOc1ccc(C(=O)Nc2ccc(F)c([C@]3(C(F)F)COCC(N)=N3)c2)nc1` [Example 180, 5-(2-Methoxy-ethoxy)-pyridine-2-carboxylic acid [3-((R)-5-amino-3-difluoromethyl-3,6-dihydro-2H-[1,4]oxazin-3-yl)-4-fluoro-phenyl]-amide hydrochloride], the IC50 is reported as 1650 nM. With `COCCOc1cnc(C(=O)Nc2ccc(F)c([C@]3(C(F)F)COCC(N)=N3)c2)c(F)c1` [Example 181, 3-Fluoro-5-(2-methoxy-ethoxy)-pyridine-2-carboxylic acid [3-((R)-5-amino-3-difluoromethyl-3,6-dihydro-2H-[1,4]oxazin-3-yl)-4-fluoro-phenyl]-amide hydrochloride] the IC50 was 6080 nM. For `CC#CCOc1cnc(C(=O)Nc2ccc(F)c([C@]3(C(F)F)COCC(N)=N3)c2)c(C)n1` [Example 182, 5-But-2-ynyloxy-3-methyl-pyrazine-2-carboxylic acid [3-((R)-5-amino-3-difluoromethyl-3,6-dihydro-2H-[1,4]oxazin-3-yl)-4-fluoro-phenyl]-amide hydrochloride], the IC50 was 171 nM. With `COCc1cnc(C(=O)Nc2ccc(F)c([C@]3(C(F)F)COCC(N)=N3)c2)c(Cl)c1` [Example 183, 3-Chloro-5-methoxymethyl-pyridine-2-carboxylic acid [3-((R)-5-amino-3-di-fluoromethyl-3,6-dihydro-2H-[1,4]oxazin-3-yl)-4-fluoro-phenyl]-amide hydrochloride] the IC50 was 4940 nM. `NC1=N[C@@](c2cc(NC(=O)c3ncc(OCF)cc3Cl)ccc2F)(C(F)F)COC1` [Example 184, 3-Chloro-5-fluoromethoxy-pyridine-2-carboxylic acid [3-((R)-5-amino-3-di-fluoromethyl-3,6-dihydro-2H-[1,4]oxazin-3-yl)-4-fluoro-phenyl]-amide hydrochloride] gave an IC50 of 47 nM. Compound `NC1=N[C@@](c2cc(NC(=O)c3ncc(OC(F)F)cc3Cl)ccc2F)(C(F)F)COC1` [Example 185, 3-Chloro-5-difluoromethoxy-pyridine-2-carboxylic acid [3-((R)-5-amino-3-difluoromethyl-3,6-dihydro-2H-[1,4]oxazin-3-yl)-4-fluoro-phenyl]-amide hydrochloride] has an IC50 of 199 nM. For `CN1CC(N)=NC(C)(c2cc(NC(=O)c3ccc(Br)cn3)ccc2F)C1=O` (stereo not drawn) [Example 186, 5-Bromo-pyridine-2-carboxylic acid [3-(6-amino-2,4-dimethyl-3-oxo-2,3,4,5-tetrahydro-pyrazin-2-yl)-4-fluoro-phenyl]-amide], the IC50 was 9110 nM. With `CN1CC(N)=NC(C)(c2cc(NC(=O)c3ccc(Br)cn3)ccc2F)C1` (stereo not drawn) [Example 187, 5-Bromo-pyridine-2-carboxylic acid [3-(6-amino-2,4-dimethyl-2,3,4,5-tetrahydro-pyrazin-2-yl)-4-fluoro-phenyl]-amide] the IC50 was 104 nM. `CN1CC(N)=NC(C)(c2cccc(NC(=O)c3ccc(Br)cn3)c2)C1=O` (stereo not drawn) [Example 188, 5-Bromo-pyridine-2-carboxylic acid [3-(6-amino-2,4-dimethyl-3-oxo-2,3,4,5-tetrahydro-pyrazin-2-yl)-phenyl]-amide] was tested, and the IC50 was 798 nM. Work on `CN1CC(C)(c2cc(NC(=O)c3ccc(Br)cn3)ccc2F)N=C(N)C1=O` (stereo not drawn) [Example 189, 5-Bromo-pyridine-2-carboxylic acid [3-(6-amino-2,4-dimethyl-5-oxo-2,3,4,5-tetrahydro-pyrazin-2-yl)-4-fluoro-phenyl]-amide hydrochloride] yielded an IC50 of 49 nM. Compound `CN1CC(C)(c2cc(NC(=O)c3ccc(Cl)cn3)ccc2F)N=C(N)C1=O` (stereo not drawn) [Example 190, 5-Chloro-pyridine-2-carboxylic acid [3-(6-amino-2,4-dimethyl-5-oxo-2,3,4,5-tetrahydro-pyrazin-2-yl)-4-fluoro-phenyl]-amide hydrochloride] has an IC50 of 35 nM. In the case of `CCN1CC(C)(c2cc(NC(=O)c3ccc(Br)cn3)ccc2F)N=C(N)C1=O` (stereo not drawn) [Example 191, 5-Bromo-pyridine-2-carboxylic acid [3-(6-amino-4-ethyl-2-methyl-5-oxo-2,3,4,5-tetrahydro-pyrazin-2-yl)-4-fluoro-phenyl]-amide hydrochloride], the IC50 is reported as 30 nM. `CN1CC(C)(c2cc(NC(=O)c3ncc(Cl)cc3Cl)ccc2F)N=C(N)C1=O` (stereo not drawn) [Example 192, 3,5-Dichloro-pyridine-2-carboxylic acid [3-(6-amino-2,4-dimethyl-5-oxo-2,3,4,5-tetrahydro-pyrazin-2-yl)-4-fluoro-phenyl]-amide hydrochloride] was tested, and the IC50 was 13 nM. With `CCN1CC(C)(c2cc(NC(=O)c3ncc(Cl)cc3Cl)ccc2F)N=C(N)C1=O` (stereo not drawn) [Example 193, 3,5-Dichloro-pyridine-2-carboxylic acid [3-(6-amino-4-ethyl-2-methyl-5-oxo-2,3,4,5-tetrahydro-pyrazin-2-yl)-4-fluoro-phenyl]-amide hydrochloride] the IC50 was 8 nM. `CC(C)N1CC(C)(c2cc(NC(=O)c3ccc(Br)cn3)ccc2F)N=C(N)C1=O` (stereo not drawn) [Example 194, 5-Bromo-pyridine-2-carboxylic acid [3-(6-amino-4-isopropyl-2-methyl-5-oxo-2,3,4,5-tetrahydro-pyrazin-2-yl)-4-fluoro-phenyl]-amide hydrochloride] was tested, and the IC50 was 47 nM. Compound `COCCN1CC(C)(c2cc(NC(=O)c3ncc(Cl)cc3Cl)ccc2F)N=C(N)C1=O` (stereo not drawn) [Example 195, 3,5-Dichloro-pyridine-2-carboxylic acid {3-[6-amino-4-(2-methoxy-ethyl)-2-methyl-5-oxo-2,3,4,5-tetrahydro-pyrazin-2-yl]-4-fluoro-phenyl}-amide hydrochloride] has an IC50 of 6 nM. With `COCCN1CC(C)(c2cc(NC(=O)c3ccc(Br)cn3)ccc2F)N=C(N)C1=O` (stereo not drawn) [Example 196, 5-Bromo-pyridine-2-carboxylic acid {3-[6-amino-4-(2-methoxy-ethyl)-2-methyl-5-oxo-2,3,4,5-tetrahydro-pyrazin-2-yl]-4-fluoro-phenyl}-amide hydrochloride] the IC50 was 17 nM. `Cn1cc(N2CC(C)(c3cc(NC(=O)c4ccc(Br)cn4)ccc3F)N=C(N)C2=O)cn1` (stereo not drawn) [Example 197, 5-Bromo-pyridine-2-carboxylic acid {3-[6-amino-2-methyl-4-(1-methyl-1H-pyrazol-4-yl)-5-oxo-2,3,4,5-tetrahydro-pyrazin-2-yl]-4-fluoro-phenyl}-amide hydrochloride] gave an IC50 of 18 nM. For `CC1(c2cc(NC(=O)c3ccc(Br)cn3)ccc2F)CN(c2cccnc2)C(=O)C(N)=N1` (stereo not drawn) [Example 198, 5-Bromo-pyridine-2-carboxylic acid [3-(6-amino-2-methyl-5-oxo-4-pyridin-3-yl-2,3,4,5-tetrahydro-pyrazin-2-yl)-4-fluoro-phenyl]-amide hydrochloride], the IC50 was 9 nM. `CCN1CC(C)(c2cc(NC(=O)c3ccc(C#N)cn3)ccc2F)N=C(N)C1=O` (stereo not drawn) [Example 199, 5-Cyano-pyridine-2-carboxylic acid [3-(6-amino-4-ethyl-2-methyl-5-oxo-2,3,4,5-tetrahydro-pyrazin-2-yl)-4-fluoro-phenyl]-amide hydrochloride] showed an IC50 of 132 nM.
